Test results taken from patent US12509445B2, “Herbicidally active 4-cyclopropyl-6-[4-(trifluormethyl)pyrazol-1-yl)]pyrimidines” (Bayer Aktiengesellschaft, priority 2019, dated 2025).

How the values were obtained:
Format in all cases: in vivo
[1] = system: Amaranthus retroflexus (AMARE); experiment: Pre-emergence herbicidal action; conditions: 320 g/ha, visual scoring after about 3 weeks vs untreated controls, 100% = plants have died
Description: (§1) The abbreviations used here have the following meanings: • ABUTH Abutilon theophrasti • AMARE Amaranlhus retroflexus • CYPES Cyperus serotinus • ECHCGEchinocloa crus galli • LOLRI Lolium rigidum Gaudin • PHBPU Pharbitis purpurcum • SETVI Setaria viridis • VERPE Veronica persica • ALOMY Alopccurus myosuroides • AVEFA Avena fatua • DIGSA Digitaria sanguinalis • LOLMU Lolium multiflorum • MATIN Matricaria inodora • POLCO Polygonum convolvulus • STEME Stellaria media • VIOTR Viola tricolor
(§2) Seeds of monocotyledonous and dicotyledonous weed plants and crop plants are placed in plastic or organic plant pots and covered with soil. The compounds of the invention, formulated in the form of wettable powders (WP) or as emulsion concentrates (EC), are then applied onto the surface of the covering soil as aqueous suspension or emulsion with addition of 0.5% additive at a water application rate of 600 l/ha (converted). After the treatment, the pots are placed in a greenhouse and kept under good growth conditions for the trial plants. After about 3 weeks, the effect of the preparations is scored visually in comparison with untreated controls as percentages. For example, 100% activity=the plants have died, 0% activity=like control plants.

[2] = system: Pharbitis purpurea (PHBPU); experiment: Pre-emergence herbicidal action; conditions: 320 g/ha, visual scoring after about 3 weeks vs untreated controls, 100% = plants have died
Description: as §1, §2

[3] = system: Veronica persica (VERPE); experiment: Pre-emergence herbicidal action; conditions: 320 g/ha, visual scoring after about 3 weeks vs untreated controls, 100% = plants have died
Description: as §1, §2

[4] = system: Stellaria media (STEME); experiment: Pre-emergence herbicidal action; conditions: for Pre-emergence action STEME: 320 g/ha, visual scoring after about 3 weeks vs untreated controls, 100% = plants have died
Description: as §1, §2
(§3) The compounds according to the invention were tested by the post-emergence and pre-emergence methods under the conditions described above for comparative purposes with the structurally closest compounds known from WO 2005/089551 A1 (D1).

[5] = system: Viola tricolor (VIOTR); experiment: Pre-emergence herbicidal action; conditions: for Herbicidal action against VIOTR: 80 g of a.i./ha, comparative test; for Pre-emergence action VIOTR: 320 g/ha, visual scoring after about 3 weeks vs untreated controls, 100% = plants have died
Description: as §1, §2, §3

[6] = system: Echinochloa crus-galli (ECHCG); experiment: Pre-emergence herbicidal action; conditions: for Herbicidal action against ECHCG: 80 g of a.i./ha, comparative test
Description: as §1, §2, §3

[7] = system: Matricaria inodora (MATIN); experiment: Pre-emergence herbicidal action; conditions: for Herbicidal action against MATIN: 80 g of a.i./ha, comparative test; for Pre-emergence action MATIN: 320 g/ha, visual scoring after about 3 weeks vs untreated controls, 100% = plants have died
Description: as §1, §2, §3

[8] = system: Polygonum convolvulus (POLCO); experiment: Pre-emergence herbicidal action; conditions: for Herbicidal action against POLCO: 80 g of a.i./ha, comparative test
Description: as §1, §2, §3

[9] = system: Alopecurus myosuroides (ALOMY); experiment: Pre-emergence herbicidal action; conditions: for Herbicidal action against ALOMY: 80 g of a.i./ha, comparative test; for Pre-emergence action ALOMY: 320 g/ha, visual scoring after about 3 weeks vs untreated controls, 100% = plants have died
Description: as §1, §2, §3

[10] = system: Setaria viridis (SETVI); experiment: Pre-emergence herbicidal action; conditions: for Herbicidal action against SETVI: 80 g of a.i./ha, comparative test; for Pre-emergence action SETVI: 320 g/ha, visual scoring after about 3 weeks vs untreated controls, 100% = plants have died
Description: as §1, §2, §3

[11] = system: harmful plants such as Abutilon theophrasti, Alopecurus myosuroides, Amaranthus retroflexus, Avena fatua, Echinochloa crus-galli, Matricaria inodora, Pharbitis …; experiment: Post-emergence herbicidal action, summary in text; conditions: post-emergence treatment
Procedure: (§4) Seeds of monocotyledonous and dicotyledonous weeds and crop plants are placed in sandy loam in plastic or organic plant pots, covered with soil and cultivated in a greenhouse under controlled growth conditions. 2 to 3 weeks after sowing, the test plants are treated at the one-leaf stage. The compounds of the invention, formulated in the form of wettable powders (WP) or as emulsion concentrates (EC), are then sprayed onto the green parts of the plants as aqueous suspension or emulsion with addition of 0.5% additive at a water application rate of 600 l/ha (converted). After the test plants have been kept in the greenhouse under optimum growth conditions for about 3 weeks, the activity of the preparations is rated visually in comparison to untreated controls. For example, 100% activity=the plants have died, 0% activity=like control plants.
In this case, for example, in the post-emergence process, the compounds No. 1-001 and 111-001 have very good herbicidal activity (80% to 100% herbicidal action) against harmful plants such as Abutilon theophrasti, Alopecurus myosuroides, Amaranthus retroflexus, Avena fatua, Echinochloa crus-galli, Matricaria inodora, Pharbitis purpurea, Setaria viridis, Stellaria media, Veronica persica and Viola tricolor at an application rate of 0.32 kg of active substance or less per hectare. At the same time, some compounds according to the invention leave graminaceous crops such as barley, wheat, rye, millet/sorghum, maize, rice or sugarcane virtually undamaged when applied by the post-emergence method, even at high active compound dosages. Some substances are additionally also benign to dicotyledonous crops such as soya, cotton, oilseed rape or sugarbeet.

[12] = system: Amaranthus retroflexus (AMARE); experiment: Post-emergence herbicidal action; conditions: 320 g/ha, visual rating after about 3 weeks vs untreated controls, 100% = plants have died
Procedure: as §4, §1

[13] = system: Viola tricolor (VIOTR); experiment: Post-emergence herbicidal action; conditions: 320 g/ha, visual rating after about 3 weeks vs untreated controls, 100% = plants have died
Procedure: as §4, §1

[14] = system: Veronica persica (VERPE); experiment: Post-emergence herbicidal action; conditions: 320 g/ha, visual rating after about 3 weeks vs untreated controls, 100% = plants have died
Procedure: as §4, §1

[15] = system: Stellaria media (STEME); experiment: Post-emergence herbicidal action; conditions: 320 g/ha, visual rating after about 3 weeks vs untreated controls, 100% = plants have died
Procedure: as §4, §1, §3

[16] = system: Lolium multiflorum (LOLMU); experiment: Post-emergence herbicidal action; conditions: 320 g/ha, visual rating after about 3 weeks vs untreated controls, 100% = plants have died
Procedure: as §4, §1, §3

[17] = system: Echinochloa crus-galli (ECHCG); experiment: Post-emergence herbicidal action; conditions: for Post-emergence action ECHCG: 320 g/ha, visual rating after about 3 weeks vs untreated controls, 100% = plants have died
Procedure: as §4, §1, §3

[18] = system: Avena fatua (AVEFA); experiment: Post-emergence herbicidal action; conditions: 320 g/ha, visual rating after about 3 weeks vs untreated controls, 100% = plants have died
Procedure: as §4, §1, §3

[19] = system: Matricaria inodora (MATIN); experiment: Post-emergence herbicidal action
Procedure: as §4, §1, §3

[20] = system: Abutilon theophrasti (ABUTH); experiment: Post-emergence herbicidal action; conditions: 320 g/ha, visual rating after about 3 weeks vs untreated controls, 100% = plants have died
Procedure: as §4, §1, §3

[21] = system: Setaria viridis (SETVI); experiment: Post-emergence herbicidal action; conditions: for Post-emergence action SETVI: 320 g/ha, visual rating after about 3 weeks vs untreated controls, 100% = plants have died
Procedure: as §4, §1, §3

[22] = system: Digitaria sanguinalis (DIGSA); experiment: Pre-emergence herbicidal action; conditions: 320 g/ha, visual scoring after about 3 weeks vs untreated controls, 100% = plants have died
Description: as §1, §2

[23] = system: Lolium rigidum Gaudin (LOLRI); experiment: Pre-emergence herbicidal action; conditions: 320 g/ha, visual scoring after about 3 weeks vs untreated controls, 100% = plants have died
Description: as §1, §2

[24] = system: Abutilon theophrasti (ABUTH); experiment: Pre-emergence herbicidal action; conditions: 320 g/ha, visual scoring after about 3 weeks vs untreated controls, 100% = plants have died
Description: as §1, §2

[25] = system: Alopecurus myosuroides (ALOMY); experiment: Post-emergence herbicidal action
Procedure: as §4, §1, §3

[26] = 320 g/ha, visual scoring after about 3 weeks vs untreated controls, 100% = plants have died
[27] = 320 g/ha, visual rating after about 3 weeks vs untreated controls, 100% = plants have died
[28] = 80 g of a.i./ha, comparative test

SMILES | Pre-emergence action AMARE [1] | Pre-emergence action PHBPU [2] | Pre-emergence action VERPE [3] | Pre-emergence action STEME [4] | Herbicidal action against VIOTR [5] | Pre-emergence action VIOTR [5] | Herbicidal action against ECHCG [6] | Herbicidal action against MATIN [7] | Pre-emergence action MATIN [7] | Herbicidal action against POLCO [8] | Herbicidal action against ALOMY [9] | Pre-emergence action ALOMY [9] | Herbicidal action against SETVI [10] | Pre-emergence action SETVI [10] | Post-emergence action AMARE [12] | Post-emergence action VIOTR [13] | Post-emergence action VERPE [14] | Post-emergence action STEME [15] | Post-emergence action ECHCG [17] | Post-emergence action SETVI [21] | further results
FC(F)(F)c1cccc(Oc2nc(C3CC3)cc(-n3cc(C(F)(F)F)cn3)n2)c1 [II-001] | 90% | 80% | 90% | 90% | 90% | 90% | 80% | 80% | 100% | 20% | 60% | 100% | 90% | 100% | 90% | 100% | 100% | 90% | 80% | 80% | Pre-emergence action ECHCG [6, 26]: 80%; herbicidal action against harmful plants (in words) [11]: good herbicidal action; Post-emergence action LOLMU [16]: 70%; Post-emergence action AVEFA [18]: 50%; Post-emergence action MATIN [19, 27]: 80%; Post-emergence action ABUTH [20]: 90%
FC(F)(F)Oc1cccc(Oc2nc(C3CC3)cc(-n3cc(C(F)(F)F)cn3)n2)c1 [II-004] | 100% | 80% | 100% | 100% | 100% | 100% | 30% | 80% | 100% | 50% | 70% | 90% | 100% | 100% | 90% | 90% | 90% | 80% | 90% | 90% | Pre-emergence action DIGSA [22]: 100%; Pre-emergence action LOLRI [23]: 90%; Pre-emergence action ABUTH [24]: 80%; Herbicidal action against STEME [4, 28]: 70%; Pre-emergence action POLCO [8, 26]: 90%; Herbicidal action against ECHCG [17, 28]: 40%; Herbicidal action against MATIN [19, 28]: 40%; Herbicidal action against ALOMY [25, 28]: 50%; Post-emergence action ALOMY [25, 27]: 80%; Herbicidal action against SETVI [21, 28]: 50%
